Measurements taken from article PMC8101618, “Comparable Initial Engagement of Intracellular Signaling Pathways by Parathyroid Hormone Receptor Ligands Teriparatide, Abaloparatide, and Long‐Acting PTH” (JBMR Plus, 2021).

How the values were obtained:
SIK = details: cultured osteocytes and in vivo; cited from earlier work
Text: Although it is well‐established that PTH‐mediated increases in bone formation require actions in osteocytes,^( ^19 , ^23 ^) the signaling events downstream of the PTH1R in osteocytes have remained elusive. We recently described a new signaling pathway that relays information from the PTH1R to the nucleus in osteocytes.^( ^24 ^) A crucial step in this cascade involves cyclic AMP (cAMP)‐mediated inhibition of salt inducible kinase 2 (SIK2). Importantly, PTH1R‐induced SIK2 phosphorylation/inactivation occurs rapidly (within 1 min of receptor engagement by hPTH (1‐34)) and then diminishes.^( ^24 ^ ...

human PTH1R = test: β-arrestin2-YFP clustering in GBR-24 cells; type: cell-based; details: TMR-labeled ligands 30nM, 15 min, room temperature; β-arrestin2-YFP HEK293 cells (GBR-24) transiently transfected with human PTH1R
Protocol: Recruitment of β‐arrestin was assessed in HEK293 cells stably transfected to express β‐arrestin2‐YFP^( ^36 ^) and glosensor (GBR‐24 cells)^( ^34 ^) and transiently transfected to express the hPTH1R or mDsRed‐hPTH1R in which the monomeric Discosoma sp. red fluorescent protein is inserted in the E2 region of the receptor's extracellular domain. Cells were treated with each PTH1R ligand and imaged by fluorescent microscopy as described above (see 2.4 Internalization). The quantification of colocalizations between β‐arrestin2YFP and TMR‐ligands were performed by ImageJ software (NIH, Bethesda, MD, USA; https://imagej.nih.gov/ij/) using Just Another Colocalization Plugin (JACoP) and indicated as cytofluorograms.
Recruitment of the intracellular scaffolding proteins β‐arrrestin1/2 is a well‐characterized step that occurs following activation and GRK‐dependent phosphorylation in multiple G‐Protein‐Coupled Receptors (GPCRs) signaling systems.^( ^39 ^) β‐arrestin recruitment is traditionally thought to lead to signal termination due to receptor internalization. […] For this, HEK293 cells stably expressing YFP‐tagged β‐arrestin2 (GBR‐24 cells) were transiently transfected with human PTH1R cDNA, then treated with TMR‐labeled PTH ligands at 30nM for 15 min at room temperature. Thereafter, cells were rinsed, fixed, and viewed by epifluorescent microscopy.

[1] = tested on: human PTH1R-pHluorin2-GFP; test: internalization using GFP^pHs fluorescence (GPG-10 cells); type: cell-based; details: continuous treatment 90 min, range of doses; ratio 485/405 nm excitation, emission 535 nm; pH 7.4; n = 6 independent experiments
Protocol: Receptor internalization was assessed in the HEK293 cell line stably transfected with human PTH1R‐pHluorin2‐GFP (GPG‐10 cells).^( ^33 , ^34 ^) Confluent monolayers of cells in black‐walled, 96‐well plates were incubated in HBSS with BSA (0.1% wt/vol) and HEPES buffer (pH 7.4, 10mM). Peptides were added and wells were analyzed by recording fluorescence readouts with excitation at 485 or 405 nm and emission at 535 nm. Data were analyzed as a ratio of fluorescence intensity following excitation at 485/405 nm over the course of 90 min, and the area under the curve (AUC) values for each time course were plotted as a function of ligand concentration.
A complementary approach was used to visualize ligand‐dependent colocalization of PTH1R and β‐arrestin2. For this, β‐arrestin2‐YFP–expressing cells were transiently transduced with a plasmid encoding a dsRed‐tagged version of human PTH1R. […] In that study, multiple ligand concentrations were used and the responses were assessed at the peak response time, which was generally ~5 min after ligand addition.^( ^42 ^) To explore differences in receptor internalization in more detail, we used constructs where the PTH receptor is fused to a pH‐sensitive GFP variant (GFP^pHs) which changes its fluorescent signal in acidic endosomes. […]

HDAC4 S246, HDAC5 S259 = test: HDAC4/5 phosphorylation immunoblotting in Ocy454 cells; type: cell-based, murine; details: 10nM, 1 hour (Supplementary Fig. S1)
Protocol: For immunoblotting, cells were prepared as described.^( ^37 ^) Whole cell lysates were prepared using TNT (Tris‐NaCl‐Tween buffer, 20mM Tris‐HCl pH 8, 200mM NaCl, 0.5% Triton X‐100 containing protease inhibitor [PI], 1mM NaF, 1mM dithiothreitol [DTT], 1mM vanadate). Adherent cells were washed with ice cold PBS, then scraped into TNT buffer on ice. Material was then transferred into Eppendorf tubes kept on ice, vortexed at top speed for 30 s, then centrifuged at 14,000g for 6 min at 4°C. For immunoblotting, lysates or immunoprecipitates were separated by SDS‐PAGE and proteins were transferred to nitrocellulose. […] The next day, membranes were washed, incubated with appropriate horseradish peroxidase (HRP)‐coupled secondary antibodies, and signals were detected with ECL Western Blotting Substrate (Pierce, Rockford, IL, USA), ECL Plus Western Blotting Substrate (Pierce), or SuperSignal West Femto Maximum Sensitivity Substrate (Thermo Scientific, Waltham, MA, USA). […] Quantification was performed using ImageJ.
In cells, SIKs are constitutively active kinases due to upstream LKB1 activation loop phosphorylation,^( ^45 ^) and therefore constitutively phosphorylate their substrates. […] We assessed the effects of different PTH ligands on class IIa HDAC and CRTC phosphorylation at well‐documented SIK phosphorylation sites: HDAC4 S246, HDAC5 S259, and CRTC2 S275. […]

PTH1R = details: cited from earlier work
Text: Recruitment of the intracellular scaffolding proteins β‐arrrestin1/2 is a well‐characterized step that occurs following activation and GRK‐dependent phosphorylation in multiple G‐Protein‐Coupled Receptors (GPCRs) signaling systems.^( ^39 ^) β‐arrestin recruitment is traditionally thought to lead to signal termination due to receptor internalization.

In the case of `COc1ccc(N2C(=O)N(c3c(C)cccc3Cl)Cc3cnc(Nc4ccc(C5CCN(C)CC5)cc4OC)nc32)nc1` [YKL‐05‐099], the PTH-mimicking action (SIK) is given as “mimic PTH action in cultured osteocytes and in vivo”.
For “LNleHQLdWKWIQDARRRAWLHKLIAEIHTAEI.NH2 [PTH (7‐36), N‐truncated LA‐PTH analog used as a negative control]”, the β-arrestin2 clustering/recruitment (human PTH1R) was “fails to stimulate β‐arrestin2 recruitment”, the “PTH1R internalization (AUC of GFP^pHs fluorescence ratio)” value [1] was “internalization‐deficient” and the “SIK substrate phosphorylation and gene expression changes” value (HDAC4 S246, HDAC5 S259) was “completely inactive”. The “intracellular signaling or PTH1R internalization” value (PTH1R) was “does not induce intracellular signaling or PTH1R internalization”.
